Residues, ends and D or L forms follow the SMILES beside them.
Experiments:
TLR2 = target: T1, TLR2 (Homo sapiens, UniProt O60603+Q15399); assay: TLR2 activation with Pam3Cys in Cal27 cells under low or high oxidative stress; format: cell-based; conditions: FIG. 34, Pam3Cys 500 ng/ml
T1 construct: TLR2-dependent ROS production in Cal27 exposed for 30 minutes to various concentrations of AAPH; host or cells: CAL27
Experimental: Cell lines (CAL27, SH-SY5Y) used for this assay were plated in plaque assays at a density of 50,000-100,000 cells per well. Colorimetric MTT (3-(4,5-dimethylthiazol-2-yl)-2,5-diphenyl tetrazolium bromide) was dissolved in HBSS buffer to obtain a final concentration of 0.5 mg/ml per well. Cell plates were incubated for 2 hours at 37° C. Conditioned medium was then removed, and acid-isopropanol (0.04N HCl in isopropanol) was added to all wells. HCL was used as positive control to induce cell death. Plates were read at 530 nm/630 nm in a Synergy Biotek machine. […] This method is an adaptation of a previously described assay (Mossman, 1983).
All cell lines were obtained from the American Type Culture Collection (ATCC, Manassas, US). In some experiments, cells were transferred to a 96 wells plate and treated with different concentration of TLR2 agonist synthetic triacylated lipoprotein PAM3CSK4 (InvivoGen) starting by 500 ng/ml final concentration to activate TLR2.
(§1) Cellular ROS levels were obtained by measuring the oxidation of CM-H2DCFDA (5-(and 6)-chlromethyl-20,70-dichlorodihydrofluresceindiacetate; Invitrogen) a cell-permeant indicator. Cal27, HEK 293 and SH-SY5Y were plated in 96 well plates at a cell density of 25000 cells per well. Cells were treated for 1 hour with 5 μM CM-H2DCFDA. After removing the CDFDA solution, cells were treated with various adaptogenic formulations prepared with ROS buffer (HBSS containing 2% FBS). After 30 min of exposure with samples, a first reading was taken using the synergy HT (Biotek) plate reader. Various concentrations of AAPH (100 mM, 40 mM, 16 mM, 6.4 mM and 2.5 mM) were then added, and readings (excitation: 485 nm, emission: 530 nm) were taken every 30 minutes for 2 hours. The fluorescence intensity is an indicator of H2O2 intracellular level so values are expressed in Relative Fluorescence Unit (RFU).
ATP intracellular levels were measured from whole cell lysates obtained through a freeze-thaw cycle, whereas ATP secreted from cells were measured from conditioned cell culture supernatants. Both intracellular and secreted ATP using measured using an ATP determination kit purchased from Invitrogen (Molecular Probes). ATP levels were detected at luminescence 560 nm. ATP levels were normalized to untreated control and were expressed as % ATP levels.

SH-SY5Y neurons = assay: ROS production by dopaminergic SH-SY5Y neurons exposed to supernatant of Cal27 cells; format: cell-based, Human
Experimental: as §1
This assay mimics the impact of mucosal cells on subepithelial neuronal cells.

[1] = ORAC (Oxygen Radical Absorbance Capacity) test; conditions: FIG. 46; combined with maple syrup
Experimental: The antioxidant capacity of formulations and beverages was determined with the ORAC (Oxygen Radical Absorbance Capacity) test. ORAC assays were performed as previously described (Prior et al, 2005). […] These free radicals are generated by the exposition of flurorescein to AAPH. […] The oxidation process is a kinetic reaction that is measured fluorescence levels (excitation: 485 nm, emission: 528 nm) over time using a Synergy HT (Biotek) microplate reader. Area under the curves (AUC) from each compound tested are calculated and compared to the blank and the control of reference the vitamin E analog 6-Hydroxy-2,5,7,8 Teramethylchromane-2-carboxylic acid (Trolox). ORAC values are expressed as μmol of Trolox equivalent per ml (μmol TE/ml) of compound tested.

T1 sequence (O60603 21-784): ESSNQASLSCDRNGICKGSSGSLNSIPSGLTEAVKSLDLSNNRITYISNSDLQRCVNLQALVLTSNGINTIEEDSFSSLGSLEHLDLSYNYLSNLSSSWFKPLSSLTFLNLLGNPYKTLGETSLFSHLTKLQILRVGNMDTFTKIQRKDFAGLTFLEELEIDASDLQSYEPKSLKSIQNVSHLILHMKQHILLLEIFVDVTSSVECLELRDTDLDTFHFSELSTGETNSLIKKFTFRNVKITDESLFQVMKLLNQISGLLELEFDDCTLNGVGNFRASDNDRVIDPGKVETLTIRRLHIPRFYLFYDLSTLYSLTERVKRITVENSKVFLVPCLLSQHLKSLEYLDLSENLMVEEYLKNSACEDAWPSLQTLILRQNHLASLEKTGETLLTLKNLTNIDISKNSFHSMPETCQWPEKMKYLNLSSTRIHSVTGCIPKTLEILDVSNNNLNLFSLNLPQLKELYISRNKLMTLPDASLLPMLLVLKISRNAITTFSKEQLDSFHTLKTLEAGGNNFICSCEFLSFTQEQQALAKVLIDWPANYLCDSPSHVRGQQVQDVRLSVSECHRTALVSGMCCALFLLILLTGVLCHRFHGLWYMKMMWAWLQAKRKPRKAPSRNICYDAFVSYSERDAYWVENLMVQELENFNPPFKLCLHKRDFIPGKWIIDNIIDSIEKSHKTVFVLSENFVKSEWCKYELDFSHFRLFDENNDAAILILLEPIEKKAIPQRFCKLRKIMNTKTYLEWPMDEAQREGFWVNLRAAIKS
T1 sequence (Q15399 25-786): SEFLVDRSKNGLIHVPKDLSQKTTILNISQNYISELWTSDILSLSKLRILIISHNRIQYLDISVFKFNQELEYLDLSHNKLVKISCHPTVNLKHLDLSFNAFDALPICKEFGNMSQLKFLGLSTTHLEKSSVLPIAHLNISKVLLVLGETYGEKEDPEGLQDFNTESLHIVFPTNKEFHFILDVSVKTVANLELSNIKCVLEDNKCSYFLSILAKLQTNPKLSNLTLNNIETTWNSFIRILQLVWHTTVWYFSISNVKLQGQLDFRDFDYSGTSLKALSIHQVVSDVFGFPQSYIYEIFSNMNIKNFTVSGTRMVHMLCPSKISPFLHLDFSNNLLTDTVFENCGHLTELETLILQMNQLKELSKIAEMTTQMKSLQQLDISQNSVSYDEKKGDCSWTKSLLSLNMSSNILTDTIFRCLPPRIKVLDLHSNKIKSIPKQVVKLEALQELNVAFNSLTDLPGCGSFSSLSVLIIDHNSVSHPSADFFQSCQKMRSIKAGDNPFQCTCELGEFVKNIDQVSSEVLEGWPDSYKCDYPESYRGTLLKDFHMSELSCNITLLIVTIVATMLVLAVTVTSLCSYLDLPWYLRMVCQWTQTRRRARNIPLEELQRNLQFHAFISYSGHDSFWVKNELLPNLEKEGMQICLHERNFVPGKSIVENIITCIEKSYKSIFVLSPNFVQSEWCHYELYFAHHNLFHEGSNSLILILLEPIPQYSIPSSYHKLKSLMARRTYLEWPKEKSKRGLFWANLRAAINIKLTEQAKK

With Pam3Cys the “impact on ROS production” value (TLR2; 6.4 mM and 16 mM AAPH) was “no significant impact”, the “impact on mitochondrial activity” value (TLR2; 6.4 mM and 16 mM AAPH) was “no significant impact” and the ATP secretion (TLR2; cells without AAPH) was “slightly increased ATP secretion”. The ATP production (TLR2; high oxidative stress (16 mM AAPH)) was “increases ATP production”, the “ROS production by dopaminergic neurons upon TLR2 activation of Cal27 cells” value (SH-SY5Y neurons; FIG. 37, 50 ng/ml of Pam3Cys) was “reduce ROS production” and the “neuroprotective role upon TLR2 activation of Cal27 cells” value (SH-SY5Y neurons; higher dose of Pam3Cys (250 or 500 ng/ml)) was “did not have this neuroprotective role”.
In the case of `C=C1C[C@@]23CC[C@H]4[C@@](C)(CCC[C@@]4(C)C(=O)O[C@@H]4O[C@H](CO)[C@@H](O)[C@H](O)[C@H]4O)[C@@H]2CC[C@]1(O[C@@H]1O[C@H](CO)[C@@H](O)[C@H](O[C@@H]2O[C@H](CO)[C@@H](O)[C@H](O)[C@H]2O)[C@H]1O[C@@H]1O[C@H](CO)[C@@H](O)[C@H](O)[C@H]1O)C3` [Rebaudiside A, Rebaudioside A], the “synergy in combination with maple syrup (ORAC versus sum of SE+ingredient)” value (“synergy … (ORAC versus sum of SE+ingredient)” for short) [1] is reported as “act in synergy”.
For `C=C1C[C@@]23CC[C@H]4[C@@](C)(CCC[C@@]4(C)C(=O)O[C@@H]4O[C@H](CO)[C@@H](O)[C@H](O)[C@H]4O)[C@@H]2CC[C@]1(O[C@@H]1O[C@H](CO)[C@@H](O)[C@H](O)[C@H]1O[C@@H]1O[C@H](CO)[C@@H](O)[C@H](O)[C@H]1O)C3` [stevioside], the “synergy … (ORAC versus sum of SE+ingredient)” value [1] was “act in synergy”.
For `OC[C@H]1O[C@H](O[C@]2(CCl)O[C@H](CCl)[C@@H](O)[C@@H]2O)[C@H](O)[C@@H](O)[C@H]1Cl` [sucralose], the “synergy … (ORAC versus sum of SE+ingredient)” value [1] was “does not create this synergy”.
With `COC(=O)[C@H](Cc1ccccc1)NC(=O)[C@@H](N)CC(=O)O` [aspartame] (H-Asp-Phe-OMe) the “synergy … (ORAC versus sum of SE+ingredient)” value [1] was “does not create this synergy”.
